Source: patent US10556907B2 (AbbVie Inc., priority 2015, dated 2020)
Structures can show the parent of a compound that is named as a salt.

Tests used:
Assay in all cases: Method 1: intracellular Ca2+ release (FLIPR, Calcium 5) in recombinant CHO-K1 cells
Format in all cases: cell-based
human S1PR5 receptor = molecular target: T1, human S1PR5 receptor (Homo sapiens, UniProt Q9H228); details: agonist potency, determined with method 1 (symbols A-D); read-out: S1P5 EC50 range
T1 construct: host or cells: CHO-K1
T1 sequence (Q9H228 whole entry): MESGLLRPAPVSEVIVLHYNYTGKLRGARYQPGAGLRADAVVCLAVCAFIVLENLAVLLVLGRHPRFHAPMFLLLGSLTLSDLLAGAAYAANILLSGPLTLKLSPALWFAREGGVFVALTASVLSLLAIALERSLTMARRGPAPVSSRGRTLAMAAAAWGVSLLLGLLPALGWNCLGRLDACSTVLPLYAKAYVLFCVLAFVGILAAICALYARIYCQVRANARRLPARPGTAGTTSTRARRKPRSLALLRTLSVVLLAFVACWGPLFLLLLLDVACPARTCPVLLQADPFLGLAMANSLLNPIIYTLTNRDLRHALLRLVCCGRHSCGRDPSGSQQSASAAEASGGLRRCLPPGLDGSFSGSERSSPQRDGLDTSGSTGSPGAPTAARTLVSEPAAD
How it was run: (§1)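 Agonist EC50; CHO-K1 + Gq/i5 + aequorin; Calcium 5 dye 1 h 37 °C, 45 min RT; serial-dilution compound add; FLIPR read; normalized to phospho-fingolimod.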

human S1PR3 receptor = molecular target: T2, human S1PR3 receptor (Homo sapiens, UniProt Q99500); details: (1): determined with method 1; read-out: S1P3 EC50
T2 construct: host or cells: CHO-K1
T2 sequence (Q99500 whole entry): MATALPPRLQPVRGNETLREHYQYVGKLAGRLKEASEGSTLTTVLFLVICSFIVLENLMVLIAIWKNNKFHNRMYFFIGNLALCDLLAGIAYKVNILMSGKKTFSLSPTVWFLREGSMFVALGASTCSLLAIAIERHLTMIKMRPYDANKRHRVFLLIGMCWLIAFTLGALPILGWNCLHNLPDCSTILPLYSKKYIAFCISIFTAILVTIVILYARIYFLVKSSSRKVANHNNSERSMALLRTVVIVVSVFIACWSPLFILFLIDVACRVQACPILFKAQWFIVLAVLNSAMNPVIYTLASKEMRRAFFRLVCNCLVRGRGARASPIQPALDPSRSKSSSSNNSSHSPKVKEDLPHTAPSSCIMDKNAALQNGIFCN
How it was run: as §1

human S1PR4 receptor = molecular target: T3, human S1PR4 receptor (Homo sapiens, UniProt O95977); details: (1): determined with method 1; read-out: S1P4 EC50
T3 construct: host or cells: CHO-K1
T3 sequence (O95977 1-384): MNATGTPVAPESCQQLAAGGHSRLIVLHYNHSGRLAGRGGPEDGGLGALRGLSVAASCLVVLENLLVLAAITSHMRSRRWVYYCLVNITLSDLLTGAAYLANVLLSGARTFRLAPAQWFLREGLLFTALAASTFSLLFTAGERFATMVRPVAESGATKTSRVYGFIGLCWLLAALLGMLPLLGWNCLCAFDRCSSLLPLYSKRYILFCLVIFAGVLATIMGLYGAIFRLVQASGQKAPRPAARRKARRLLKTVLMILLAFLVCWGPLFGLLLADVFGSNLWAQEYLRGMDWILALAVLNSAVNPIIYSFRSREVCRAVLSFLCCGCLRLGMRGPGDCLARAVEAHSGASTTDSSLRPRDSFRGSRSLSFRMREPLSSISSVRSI
How it was run: as §1

human S1PR1 receptor = molecular target: T4, human S1PR1 receptor (Homo sapiens, UniProt P21453); details: (1): determined with method 1; read-out: S1P1 EC50
T4 construct: host or cells: CHO-K1
T4 sequence (P21453 whole entry): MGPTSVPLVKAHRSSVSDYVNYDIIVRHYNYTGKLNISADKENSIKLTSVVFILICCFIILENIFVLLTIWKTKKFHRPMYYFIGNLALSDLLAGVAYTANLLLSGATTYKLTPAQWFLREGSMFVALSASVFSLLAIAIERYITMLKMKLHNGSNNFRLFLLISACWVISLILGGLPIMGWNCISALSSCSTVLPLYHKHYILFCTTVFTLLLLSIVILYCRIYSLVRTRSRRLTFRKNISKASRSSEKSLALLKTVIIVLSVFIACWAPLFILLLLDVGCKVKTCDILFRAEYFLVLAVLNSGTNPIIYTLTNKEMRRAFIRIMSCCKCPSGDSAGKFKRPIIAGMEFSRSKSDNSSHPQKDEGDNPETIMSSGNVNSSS
How it was run: as §1

EC50 (human S1PR5 receptor) [nM]	EC50 (human S1PR3 receptor) [nM]	EC50 (human S1PR4 receptor) [nM]	EC50 (human S1PR1 receptor) [nM]	Compound
10 to 100	> 1000	> 1000	> 1000	CC(CN1CCc2nc(-c3ccc(OCc4cc(Cl)cc(Cl)c4)cc3)ncc2C1)C(=O)O (single isomer, unassigned) [Compound 20, 3-(2-(4-((3,5-dichlorobenzyl)oxy)phenyl)-7,8-dihydropyrido[4,3-d]pyrimidin-6(5H)-yl)-2-methylpropanoic acid]
< 10	> 1000	> 1000	> 1000	CC(CC(=O)O)CN1CCc2nc(-c3ccc(OCc4c(F)cccc4F)cc3F)ncc2C1 (stereo not drawn) [Compound 240, 4-[2-[4-[(2,6-difluorophenyl)methoxy]-2-fluoro-phenyl]-7,8-dihydro-5H-pyrido[4,3-d]pyrimidin-6-yl]-3-methyl-butanoic acid 2,2,2-trifluoroacetic acid salt]
1000 to 10000	> 1000	> 1000	> 1000	CCOc1ccc(C#Cc2ccc3c(n2)CCN(C2CC(C(=O)O)C2)C3)cc1 (stereo not drawn) [Compound 122, 3-(2-((4-ethoxyphenyl)ethynyl)-7,8-dihydro-1,6-naphthyridin-6(5H)-yl)cyclobutanecarboxylic acid]
10 to 100	> 1000	> 1000	> 1000	CC(CC(=O)O)CN1CCc2nc(-c3ccc(C(F)(F)Cc4ccc(Cl)cc4F)cc3)ncc2C1 (stereo not drawn) [Compound 277]
< 10	> 1000	> 1000	> 1000	Cc1cc(-c2cc3c(cn2)CN(CCC(=O)O)CC3)ccc1OCc1ccc(C(F)(F)F)cc1 [Compound 173, 3-(6-((4(4-trifluoromethylbenzyl)oxy)-3-methylphenyl)-3,4-dihydro-2,7-naphthyridin-2(1H)-yl)propanoic acid]
1000 to 10000	> 1000	> 1000	> 1000	CC(C)(CC(=O)O)CN1CCc2nc(-c3ccc(OCc4ccc(Cl)cc4)cc3)ncc2C1 [Compound 210, 4-(2-(4-((4-chlorobenzyl)oxy)phenyl)-7,8-dihydropyrido[4,3-d]pyrimidin-6(5H)-yl)-3,3-dimethylbutanoic acid]
1000 to 10000	> 1000	> 1000	> 1000	O=C(O)C1CC(N2CCc3nc(C#Cc4ccc(OCc5ccccc5)cc4)ncc3C2)C1 (stereo not drawn) [Compound 59, 3-(2-((4-(benzyloxy)phenyl)ethynyl)-7,8-dihydropyrido[4,3-d]pyrimidin-6(5H)-yl)cyclobutanecarboxylic acid]
< 10	> 1000	> 1000	> 1000	Cc1cc(-c2ccc3c(n2)CCN(CCC(=O)O)C3)ccc1OCc1ccc(Cl)cc1 [Compound 169, 3-(2-(4-((4-chlorobenzyl)oxy)-3-methylphenyl)-7,8-dihydro-1,6-naphthyridin-6(5H)-yl)propanoic acid]
< 10	> 1000	> 1000	> 1000	O=C(O)CCN1CCc2nc(-c3ccc(OCc4cccc(F)c4)cc3)c(F)cc2C1 [Compound 193, 3-(2-(4-((3-fluorobenzyl)oxy)phenyl)-3-fluoro-7,8-dihydro-1,6-naphthyridin-6(5H)-yl)propanoic acid]
< 10	> 1000	> 1000	> 1000	O=C(O)CCN1CCc2nc(-c3ccc(OCc4cccc(F)c4)cc3)ccc2C1 [Compound 133, 3-(2-(4-((3-fluorobenzyl)oxy)phenyl)-7,8-dihydro-1,6-naphthyridin-6(5H)-yl)propanoic acid]
< 10	> 1000	> 1000	> 1000	CC(CCC(=O)O)N1CCc2nc(-c3ccc(OCc4ccccc4)cc3)ncc2C1 (stereo not drawn) [Compound 64, 4-(2-(4-(benzyloxy)phenyl)-7,8-dihydropyrido[4,3-d]pyrimidin-6(5H)-yl)pentanoic acid]
< 10	> 1000	> 1000	> 1000	Cc1c(COc2ccc(-c3ncc4c(n3)CCN(CC(C)CC(=O)O)C4)c(F)c2)cccc1C(F)(F)F (stereo not drawn) [Compound 241, 4-[2-[2-fluoro-4-[[2-methyl-3-(trifluoromethyl)phenyl]methoxy]phenyl]-7,8-dihydro-5H-pyrido[4,3-d]pyrimidin-6-yl]-3-methyl-butanoic acid 2,2,2-trifluoroacetic acid salt]
< 10	> 1000	> 1000	> 1000	CC(CCC(=O)O)N1CCc2nc(-c3ccc(OCc4ccc(Cl)cc4)cc3)ncc2C1 (stereo not drawn) [Compound 66, 4-(2-(4-((4-chlorobenzyl)oxy)phenyl)-7,8-dihydropyrido[4,3-d]pyrimidin-6(5H)-yl)pentanoic acid]
1000 to 10000	> 1000	> 1000	> 1000	CCc1cccc(Cl)c1COc1ncc2c(n1)CCN(CCC(=O)O)C2 [Compound 96, 3-(2-((2-chloro-6-ethylbenzyl)oxy)-7,8-dihydropyrido[4,3-d]pyrimidin-6(5H)-yl)propanoic acid]
1000 to 10000	> 1000	> 1000	> 1000	O=C(O)C1CC(N2CCc3nc(C#Cc4ccc(Cl)cc4)ncc3C2)C1 (stereo not drawn) [Compound 54, 3-(2-((4-chlorophenyl)ethynyl)-7,8-dihydropyrido[4,3-d]pyrimidin-6(5H)-yl)cyclobutanecarboxylic acid]
100 to 1000	> 1000	> 1000	> 1000	O=C(O)CC1CC(N2CCc3nc(-c4ccc(OCc5ccc(Cl)cc5)cc4)ncc3C2)C1 (stereo not drawn) [Compound 2, 2-(3-(2-(4-((4-chlorobenzyl)oxy)phenyl)-7,8-dihydropyrido[4,3-d]pyrimidin-6(5H)-yl)cyclobutyl)acetic acid]
10 to 100	> 1000	> 1000	> 1000	CC(CC(=O)O)CN1CCc2nc(-c3ccc(OCc4ccc(Cl)c(Cl)c4)cc3F)ncc2C1 (stereo not drawn) [Compound 271, 4-[2-[4-[(3,4-dichlorophenyl)methoxy]-2-fluoro-phenyl]-7,8-dihydro-5H-pyrido[4,3-d]pyrimidin-6-yl]-3-methyl-butanoic acid 2,2,2-trifluoroacetic acid salt]
1000 to 10000	> 1000	> 1000	> 1000	O=C(O)C1CC(N2CCc3nc(C#Cc4ccc(F)cc4)ncc3C2)C1 (stereo not drawn) [Compound 57, 3-(2-((4-fluorophenyl)ethynyl)-7,8-dihydropyrido[4,3-d]pyrimidin-6(5H)-yl)cyclobutanecarboxylic acid]
< 10	> 1000	> 1000	> 1000	CC(CC(=O)O)CN1CCc2nc(-c3ccc(OCc4cccc(Cl)c4)cc3)ncc2C1 (stereo not drawn) [Compound 22, 4-(2-(4-((3-chlorobenzyl)oxy)phenyl)-7,8-dihydropyrido[4,3-d]pyrimidin-6(5H)-yl)-3-methylbutanoic acid]
10 to 100	> 1000	> 1000	> 1000	CC(CC(=O)O)CN1CCc2nc(-c3ccc(OCc4ccc(C(C)(C)C)cc4)cc3F)ncc2C1 (stereo not drawn) [Compound 283, 4-[2-[4-[(4-tert-butylphenyl)methoxy]-2-fluoro-phenyl]-7,8-dihydro-5H-pyrido[4,3-d]pyrimidin-6-yl]-3-methyl-butanoic acid 2,2,2-trifluoroacetic acid salt]
1000 to 10000	> 1000	> 1000	> 1000	O=C(O)C1CC(N2CCc3nc(C#Cc4cccc(Cl)c4)ccc3C2)C1 (stereo not drawn) [Compound 128, 3-(2-((3-chlorophenyl)ethynyl)-7,8-dihydro-1,6-naphthyridin-6(5H)-yl)cyclobutanecarboxylic acid]
10 to 100	> 1000	> 1000	> 1000	C[C@@H](CC(=O)O)CN1CCc2nc(-c3ccc(OCc4ccc(Cl)cc4)cc3)ncc2C1=O [Compound 267, (S)-4-(2-(4-((4-chlorobenzyl)oxy)phenyl)-5-oxo-7,8-dihydropyrido[4,3-d]pyrimidin-6(5H)-yl)-3-methylbutanoic acid]
< 10	> 1000	> 1000	> 1000	O=C(O)CCCN1CCc2nc(-c3ccc(OCc4ccc(Cl)cc4)cc3)ncc2C1 [Compound 40, 4-(2-(4-((4-chlorobenzyl)oxy)phenyl)-7,8-dihydropyrido[4,3-d]pyrimidin-6(5H)-yl)butanoic acid]
< 10	> 1000	> 1000	> 1000	O=C(O)CCN1CCc2nc(-c3ccc(OCc4ccc5c(c4)CCC5)cc3)ccc2C1 [Compound 162, 3-(2-(4-((5-indanyl)methoxy)phenyl)-7,8-dihydro-1,6-naphthyridin-6(5H)-yl)propanoic acid]
